pIC50: −log10 of the molar value. Read-outs that look alike come from different tables or passages of the source.
Legend:
[1] = test system: H3K27Me3 methylation in Karpas-422 cells; assay: H3K27Me3 cell method, inhibition of H3K27Me3 methylation (Test Example 2); assay type: cell-based, human; conditions: for pIC50: Karpas-422 cells, 3 days incubation, HTRF signal, read-out: Test Example 2 H3K27Me3 inhibition (Karpas-422) IC50
Description: Karpas-422 (Nanjing Kebai, CBP60629) cells were seeded in a 96-well plate (Corning, 3894) at 15,000 cells per well in culture medium (80% 1640 (Hyclone, SH30809.01)+20% FBS (Corning, 35-081-CV)), and then added with different concentrations of compounds for treatment. The cell growth group without adding compounds is used as a positive control (maximum signal control), and the medium is used as a negative control (minimum signal control), while ensuring that in each reaction well, the final concentration of DMSO was 0.2%. Compounds and cells were incubated for 3 days in a cell culture incubator (37° C., 5% CO2). The 96-well plate was taken out from the cell culture incubator and equilibrated to room temperature, and 25 ul of cell suspension was taken out into a 384-well plate. The CCK8 (Beiyuntian, C0040) detection reagent was added, incubated at 37° C. for 1 h, and […] was detected. The rest of the cells followed the procedure of the kit EPIgeneous H3K27Me3 cellular kit (Cisbio, 62KC3PAE) to carry out experiment, read HTRF signal with BMG PHERAStar. […] By GraphPad Prism 6 with log(inhibitor)vs.response-Variable slope model simulation, the IC50 of the compound on cell activity inhibition was calculated. The fitting equation is: Y=Bottom+(Top−Bottom)/(1+10^((Log IC50−X)*HillSlope)), wherein Y represents the inhibition rate, and X represents the known concentration of the compound after Log.

EZH2/SUZ/EED = target: T1, EZH2/SUZ/EED (Homo sapiens, UniProt O75530+Q15022+Q15910); assay: Inhibitory effect on EZH2 by the MTase-Glo method (Test Example 1); assay type: biochemical; conditions: EZH2/SUZ/EED 6.25 nM, H3 peptide 10 μM, SAM 3 μM, 30° C. 3 h, read-out: Test Example 1 WT EZH2 IC50
T1 construct: purchased BPS 51003
T1 sequence (Q15910 2-746 limits assumed): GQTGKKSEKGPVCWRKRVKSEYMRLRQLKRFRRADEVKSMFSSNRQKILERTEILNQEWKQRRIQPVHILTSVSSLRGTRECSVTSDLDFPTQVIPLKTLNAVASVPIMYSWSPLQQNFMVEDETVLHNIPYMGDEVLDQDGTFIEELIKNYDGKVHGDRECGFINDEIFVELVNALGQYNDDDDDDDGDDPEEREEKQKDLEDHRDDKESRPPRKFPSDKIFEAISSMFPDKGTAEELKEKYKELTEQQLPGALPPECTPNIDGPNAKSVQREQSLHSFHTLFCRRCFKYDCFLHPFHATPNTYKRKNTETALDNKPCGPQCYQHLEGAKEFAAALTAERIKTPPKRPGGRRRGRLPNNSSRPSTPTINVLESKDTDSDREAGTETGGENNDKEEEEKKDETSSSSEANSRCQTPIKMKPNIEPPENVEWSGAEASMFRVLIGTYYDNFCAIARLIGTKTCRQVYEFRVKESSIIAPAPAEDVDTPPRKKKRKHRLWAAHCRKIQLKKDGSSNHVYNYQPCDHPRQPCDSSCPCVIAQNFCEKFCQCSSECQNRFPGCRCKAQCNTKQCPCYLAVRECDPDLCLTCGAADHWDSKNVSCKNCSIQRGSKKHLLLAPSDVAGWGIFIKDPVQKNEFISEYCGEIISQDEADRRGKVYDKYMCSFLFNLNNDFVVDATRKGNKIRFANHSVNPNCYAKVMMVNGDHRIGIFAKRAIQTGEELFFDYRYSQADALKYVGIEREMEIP
T1 sequence (Q15022 2-739 partner limits assumed): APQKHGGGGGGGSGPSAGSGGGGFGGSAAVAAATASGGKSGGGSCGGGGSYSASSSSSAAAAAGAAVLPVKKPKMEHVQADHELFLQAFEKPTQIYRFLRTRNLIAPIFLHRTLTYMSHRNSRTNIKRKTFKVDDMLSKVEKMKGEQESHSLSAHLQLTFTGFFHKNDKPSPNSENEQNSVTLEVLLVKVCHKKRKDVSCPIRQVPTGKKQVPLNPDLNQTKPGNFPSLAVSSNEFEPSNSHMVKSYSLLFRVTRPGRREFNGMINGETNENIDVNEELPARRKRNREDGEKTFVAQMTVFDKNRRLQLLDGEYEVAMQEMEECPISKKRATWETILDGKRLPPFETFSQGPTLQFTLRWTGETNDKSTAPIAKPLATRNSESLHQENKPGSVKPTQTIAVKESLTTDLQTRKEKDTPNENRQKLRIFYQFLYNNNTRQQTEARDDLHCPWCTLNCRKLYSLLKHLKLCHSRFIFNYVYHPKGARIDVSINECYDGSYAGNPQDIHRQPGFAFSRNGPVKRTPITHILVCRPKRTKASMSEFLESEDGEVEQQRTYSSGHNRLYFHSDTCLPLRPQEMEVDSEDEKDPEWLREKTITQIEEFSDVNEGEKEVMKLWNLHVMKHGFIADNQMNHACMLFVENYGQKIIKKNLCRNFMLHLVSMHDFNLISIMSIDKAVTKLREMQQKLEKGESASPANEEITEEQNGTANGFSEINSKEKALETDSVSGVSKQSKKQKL
T1 sequence (O75530 2-441 partner limits assumed): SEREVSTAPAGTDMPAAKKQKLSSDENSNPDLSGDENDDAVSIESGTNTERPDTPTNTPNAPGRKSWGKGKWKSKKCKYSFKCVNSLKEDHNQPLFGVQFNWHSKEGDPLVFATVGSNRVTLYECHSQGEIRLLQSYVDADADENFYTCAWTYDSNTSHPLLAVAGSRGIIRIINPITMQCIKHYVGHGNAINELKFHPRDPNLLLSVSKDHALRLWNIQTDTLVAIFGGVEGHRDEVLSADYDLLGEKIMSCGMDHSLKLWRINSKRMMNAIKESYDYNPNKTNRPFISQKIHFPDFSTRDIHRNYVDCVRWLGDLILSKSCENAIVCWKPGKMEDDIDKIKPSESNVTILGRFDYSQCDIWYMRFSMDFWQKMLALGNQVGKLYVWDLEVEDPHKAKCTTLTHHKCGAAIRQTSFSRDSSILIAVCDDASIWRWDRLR
Description: (§1) The compound was dissolved in DMSO, and the compound was serially diluted using ECHO665 and transferred to a 384-well reaction plate (Corning, 3824). A sample containing only DMSO was added as a positive control (maximum signal control) and a negative control (minimum signal control), while ensuring that the final DMSO content in each reaction well was 0.5%. The protein was configured in reaction buffer (50 mM Bicine, 0.01% Triton X-100, 1 mM DTT, 0.01% BSA, pH 7.6), such that the final reaction concentrations of EZH2/SUZ/EED (BPS, 51003) protein solution and EZH1/SUZ/EED (BPS, 51006) were 6.25 nM and 25 nM, respectively. The negative control (minimum signal control) used an equal amount of buffer instead of protein solution. The prepared protein solution was added to the 384-well reaction plate and pre-incubated at room temperature for 15 minutes. The mixture of the substrate H3 peptide fragment (custom-synthesized by GenScript, biotinylated Histone H3(21-44) peptide ([…]-GG-K(Biotin)-OH)) prepared in the reaction buffer and SAM (Promega, V7601) was added into the 384-well plate, such that the final reaction concentration of H3 peptide fragment was 10 μM, and the final concentration of SAM was 3 μM. The mixture was centrifuged at 1000 rpm for 1 min. The 384-well reaction plate was placed in a constant temperature shaker and incubate at 30° C. for 3 h at a speed of 300 rpm. Then the detection reagent was added according to the experimental process of the kit MTase-Glo (Promega, V7601) and incubated.
(§2) After incubation, read with BMG PHERAStar. The luminescence signals obtained by positive control (maximum signal control) and negative control (minimum signal control) were normalized to obtain the inhibition rate of different concentrations of compounds. Then, the IC50 of the compound on the enzyme activity inhibition was calculated by GraphPad Prism 6 with log(inhibitor) vs. response-Variable slope model fitting. The fitting equation is: Y=Bottom+(Top−Bottom)/(1+10^((Log IC50−X)*HillSlope)), wherein Y represents the known percentage remaining enzyme activity, and X represents the known activity after Log compound concentration.

EZH1/SUZ/EED = target: T2, EZH1/SUZ/EED (Homo sapiens, UniProt O75530+Q15022+Q92800); assay: Inhibitory effect on EZH1 by the MTase-Glo method (Test Example 1); assay type: biochemical; conditions: EZH1/SUZ/EED 25 nM, H3 peptide 10 μM, SAM 3 μM, 30° C. 3 h, read-out: Test Example 1 WT EZH1 IC50
T2 construct: purchased BPS 51006
T2 sequence (Q92800 2-747 limits assumed): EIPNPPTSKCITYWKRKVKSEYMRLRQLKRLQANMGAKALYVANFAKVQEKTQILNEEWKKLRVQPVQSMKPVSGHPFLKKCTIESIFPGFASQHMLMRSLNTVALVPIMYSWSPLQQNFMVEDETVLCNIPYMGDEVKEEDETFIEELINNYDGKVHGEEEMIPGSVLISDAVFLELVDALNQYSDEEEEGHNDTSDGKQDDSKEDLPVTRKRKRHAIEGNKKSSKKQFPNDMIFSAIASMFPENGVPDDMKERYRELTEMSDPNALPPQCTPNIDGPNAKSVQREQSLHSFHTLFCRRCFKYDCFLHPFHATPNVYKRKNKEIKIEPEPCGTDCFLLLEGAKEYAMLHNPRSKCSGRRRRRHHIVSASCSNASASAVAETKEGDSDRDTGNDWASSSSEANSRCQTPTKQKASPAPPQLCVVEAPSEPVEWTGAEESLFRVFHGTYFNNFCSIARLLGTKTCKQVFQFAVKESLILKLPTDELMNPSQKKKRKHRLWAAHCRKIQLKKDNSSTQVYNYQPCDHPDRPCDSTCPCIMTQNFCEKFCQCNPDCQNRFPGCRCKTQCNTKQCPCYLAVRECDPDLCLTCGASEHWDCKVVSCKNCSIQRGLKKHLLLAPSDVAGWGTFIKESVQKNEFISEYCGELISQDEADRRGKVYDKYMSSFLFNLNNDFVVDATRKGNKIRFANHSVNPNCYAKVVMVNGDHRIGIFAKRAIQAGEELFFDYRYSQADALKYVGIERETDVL
T2 sequence (Q15022 2-739 partner limits assumed): as the sequence (Q15022 2-739 partner limits assumed) above
T2 sequence (O75530 2-441 partner limits assumed): as the sequence (O75530 2-441 partner limits assumed) above
Description: as §1, §2

Row | SMILES | pIC50 [1] | pIC50 (EZH2/SUZ/EED) | pIC50 (EZH1/SUZ/EED) | pIC50 ([1]; Homo sapiens, KARPAS-422, 72 h) | IC50 ([1]; Homo sapiens, KARPAS-422, 72 h, read-out: Test Example 2 H3K27Me3 inhibition (Karpas-422) IC50(nM)) [nM]
1 | Cc1cc(C)c(CNC(=O)c2cc(Cl)c3c(c2C)OC(C2CCC(N(C)CCF)CC2)CO3)c(=O)[nH]1 (stereo not drawn) [Compound 125] | – | 7.47 | 6.51 | 6.40 | –
2 | COC1CC2CN([C@H]3CC[C@H]([C@H]4COc5c(Cl)cc(C(=O)NCc6c(SC)cc(C)[nH]c6=O)c(C)c5O4)CC3)CC2C1 (stereo partly drawn) [Compound 50] | – | – | 7.93 | 7.62 | –
3 | Cc1cc(C)c(CNC(=O)c2cc(Cl)c3c(c2C)OC(C2CCC(NC4CC(F)C4)CC2)CO3)c(=O)[nH]1 (single isomer, unassigned) [Compound 64] | – | 7.78 | 6.60 | 6.05 | –
4 | Cc1cc(C)c(CNC(=O)c2cc(Cl)c3c(c2C)O[C@@H](C2CCN(C4COC4)CC2)CO3)c(=O)[nH]1 [Compound 88] | – | 7.53 | – | 6.51 | –
5 | CSc1cc(C)[nH]c(=O)c1CNC(=O)c1cc(Cl)c2c(c1C)O[C@H]([C@H]1CC[C@H](N3CC(OC4CC4)C3)CC1)CO2 [Compound 12] | – | 8.59 | – | 8.03 | –
6 | CON(C)C1CCC(C2COc3c(Cl)cc(C(=O)NCc4c(C)cc(C)[nH]c4=O)c(C)c3O2)CC1 (single isomer, unassigned) [Compound 78] | – | 7.92 | – | – | 370
7 | CO[C@H]1CCN([C@H]2CC[C@H]([C@H]3COc4c(Cl)cc(C(=O)NCc5c(SC)cc(C)[nH]c5=O)c(C)c4O3)CC2)C1 [Compound 40] | – | – | – | 8.08 | –

More lines, main results first:

Row | pIC50 [1] | pIC50 (EZH2/SUZ/EED) | pIC50 (EZH1/SUZ/EED) | pIC50 ([1]; Homo sapiens, KARPAS-422, 72 h) | SMILES | IC50 ([1]; Homo sapiens, KARPAS-422, 72 h, read-out: Test Example 2 H3K27Me3 inhibition (Karpas-422) IC50(nM)) [nM]
8 | 6.30 | 7.66 | 5.84 | – | COC1CN(C2CCC(C3COc4c(Cl)cc(C(=O)NCc5c(C)cc(C)[nH]c5=O)c(C)c4O3)CC2)C1 (single isomer, unassigned) [Compound 62] | –
9 | – | 8.48 | 8.24 | 7.47 | CSc1cc(C)[nH]c(=O)c1CNC(=O)c1cc(Cl)c2c(c1C)O[C@@H]([C@H]1CC[C@H](N3CC4(COC4)C3)CC1)CO2 [Compound 29] | –
10 | – | 7.98 | – | 7.02 | Cc1cc(C)c(CNC(=O)c2cc(Cl)c3c(c2C)OC(C2CCC(N4CC(C(C)(C)O)C4)CC2)CO3)c(=O)[nH]1 (stereo not drawn) [Compound 85] | –
11 | – | – | – | 7.88 | COc1cc(C)[nH]c(=O)c1CNC(=O)c1cc(Cl)c2c(c1Cl)O[C@@H]([C@H]1CC[C@@H](N3CC(OC)C3)CC1)CO2 [Compound 151] | –
12 | – | – | 8.11 | 7.18 | CSc1cc(C)[nH]c(=O)c1CNC(=O)c1cc(Cl)c2c(c1C)O[C@@H]([C@H]1CC[C@H](N3CC4(CCO4)C3)CC1)CO2 [Compound 46] | –
13 | – | 8.68 | – | 7.00 | CSc1cc(C)[nH]c(=O)c1CNC(=O)c1cc(Cl)c2c(c1C)O[C@@H]([C@H]1CC[C@H](N3CC4COCC4C3)CC1)CO2 (stereo partly drawn) [Compound 15] | –
14 | – | – | 8.07 | 7.33 | CO[C@@H]1CCN([C@H]2CC[C@H]([C@H]3COc4c(Cl)cc(C(=O)NCc5c(SC)cc(C)[nH]c5=O)c(C)c4O3)CC2)C1 [Compound 42] | –
15 | – | 8.51 | – | 7.85 | COC1CN([C@H]2CC[C@H]([C@H]3COc4c(Cl)cc(C(=O)NCc5c(SC)cc(C)[nH]c5=O)c(C)c4O3)CC2)C1 [Compound 9] | –
16 | – | – | 8.66 | 8.55 | COC1CC2CN([C@H]3CC[C@@H]([C@H]4COc5c(Cl)cc(C(=O)NCc6c(SC)cc(C)[nH]c6=O)c(C)c5O4)CC3)CC2C1 (stereo partly drawn) [Compound 49] | –
17 | – | 8.24 | – | 6.34 | COc1cc(C)[nH]c(=O)c1CNC(=O)c1cc(Cl)c2c(c1C)O[C@@H]([C@H]1CC[C@H](N3CC(OC)C3)CC1)CO2 [Compound 98] | –
